Values of other authors in US6901278B1, “Methods for reducing the risk of breast cancer in and improving the health of women” (priority 2002, dated 2005).

Conditions: following first-pass hepatic metabolism

bioavailable fraction of oral estradiol: 5%
SMILES: C[C@]12CC[C@@H]3c4ccc(O)cc4CC[C@H]3[C@@H]1CC[C@@H]2O [Estradiol, 17β-estradiol]
